Source: PubChem BioAssay (NCI)
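How tested: cells in 96-well plates exposed to compound for 48 hours at five concentrations. TGI: concentration producing complete growth inhibition.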

Columns and labels:
Assay in all cases: NCI-60 cell line screen, 48 h
786-0 renal = test system: 786-0 renal
A498 renal = test system: A498 renal
A549 NSCLC = test system: A549 NSCLC
ACHN renal = test system: ACHN renal
BT-549 breast = test system: BT-549 breast
CAKI-1 renal = test system: CAKI-1 renal
CCRF-CEM leukemia = test system: CCRF-CEM leukemia
COLO 205 colon = test system: COLO 205 colon
EKVX NSCLC = test system: EKVX NSCLC
HCC-2998 colon = test system: HCC-2998 colon
HCT-116 colon = test system: HCT-116 colon
HCT-15 colon = test system: HCT-15 colon
HL-60(TB) leukemia = test system: HL-60(TB) leukemia
HOP-62 NSCLC = test system: HOP-62 NSCLC
HS 578T breast = test system: HS 578T breast
HT29 colon = test system: HT29 colon
IGROV1 ovarian = test system: IGROV1 ovarian
K-562 leukemia = test system: K-562 leukemia
KM12 colon = test system: KM12 colon
LOX IMVI melanoma = test system: LOX IMVI melanoma
M14 melanoma = test system: M14 melanoma
MALME-3M melanoma = test system: MALME-3M melanoma
MCF7 breast = test system: MCF7 breast
MDA-MB-231 breast = test system: MDA-MB-231 breast
MDA-MB-435 = test system: MDA-MB-435
MDA-N = test system: MDA-N
MOLT-4 leukemia = test system: MOLT-4 leukemia
NCI-H226 lung = test system: NCI-H226 lung
NCI-H23 lung = test system: NCI-H23 lung
NCI-H460 lung = test system: NCI-H460 lung
NCI-H522 lung = test system: NCI-H522 lung
NCI/ADR-RES ovarian = test system: NCI/ADR-RES ovarian
OVCAR-4 ovarian = test system: OVCAR-4 ovarian
OVCAR-5 ovarian = test system: OVCAR-5 ovarian
OVCAR-8 ovarian = test system: OVCAR-8 ovarian
PC-3 prostate = test system: PC-3 prostate
RPMI-8226 leukemia = test system: RPMI-8226 leukemia
RXF 393 renal = test system: RXF 393 renal
SF-268 CNS = test system: SF-268 CNS
SF-295 CNS = test system: SF-295 CNS
SF-539 CNS = test system: SF-539 CNS
SK-MEL-2 melanoma = test system: SK-MEL-2 melanoma
SK-MEL-28 melanoma = test system: SK-MEL-28 melanoma
SK-MEL-5 melanoma = test system: SK-MEL-5 melanoma
SK-OV-3 ovarian = test system: SK-OV-3 ovarian
SN12C renal = test system: SN12C renal
SNB-19 CNS = test system: SNB-19 CNS
SNB-75 CNS = test system: SNB-75 CNS
SR leukemia = test system: SR leukemia
SW-620 colon = test system: SW-620 colon
T-47D breast = test system: T-47D breast
TK-10 renal = test system: TK-10 renal
U251 CNS = test system: U251 CNS
UACC-257 melanoma = test system: UACC-257 melanoma
UACC-62 melanoma = test system: UACC-62 melanoma
UO-31 renal = test system: UO-31 renal
DU-145 prostate = test system: DU-145 prostate
OVCAR-3 ovarian = test system: OVCAR-3 ovarian

## CN(C)CCn1nc2c3c(c(C(=O)NCCCN(C)CCCNC(=O)c4ccc5c6c(nn5CCN(C)C)-c5ccccc5Nc46)ccc31)Nc1ccccc1-2
786-0 renal
  TGI: 1280 nM
A498 renal
  TGI: 623 nM
A549 NSCLC
  TGI: 332 nM
ACHN renal
  TGI: 6260 nM
BT-549 breast
  TGI: 1650 nM
CAKI-1 renal
  TGI: 3300 nM
CCRF-CEM leukemia
  TGI: 2630 nM
COLO 205 colon
  TGI: 227 nM
EKVX NSCLC
  TGI: 505 nM
HCC-2998 colon
  TGI: 245 nM
HCT-116 colon
  TGI: 525 nM
HCT-15 colon
  TGI: 16600 nM
HL-60(TB) leukemia
  TGI: 944 nM
HOP-62 NSCLC
  TGI: 574 nM
HS 578T breast
  TGI: 1860 nM
HT29 colon
  TGI: 561 nM
IGROV1 ovarian
  TGI: 15600 nM
K-562 leukemia
  TGI: 1890 nM
KM12 colon
  TGI: 1330 nM
LOX IMVI melanoma
  TGI: 1280 nM
M14 melanoma
  TGI: 1580 nM
MALME-3M melanoma
  TGI: 280 nM
MCF7 breast
  TGI: 582 nM
MDA-MB-231 breast
  TGI: 518 nM
MDA-MB-435
  TGI: 415 nM
MDA-N
  TGI: 318 nM
MOLT-4 leukemia
  TGI: 1580 nM
NCI-H226 lung
  TGI: 217 nM
NCI-H23 lung
  TGI: 617 nM
NCI-H460 lung
  TGI: 432 nM
NCI-H522 lung
  TGI: 117 nM
NCI/ADR-RES ovarian
  TGI: > 71200 nM
OVCAR-4 ovarian
  TGI: 658 nM
OVCAR-5 ovarian
  TGI: 751 nM
OVCAR-8 ovarian
  TGI: 2970 nM
PC-3 prostate
  TGI: 834 nM
RPMI-8226 leukemia
  TGI: 1370 nM
RXF 393 renal
  TGI: 1450 nM
SF-268 CNS
  TGI: 549 nM
SF-295 CNS
  TGI: 2080 nM
SF-539 CNS
  TGI: 2190 nM
SK-MEL-2 melanoma
  TGI: 243 nM
SK-MEL-28 melanoma
  TGI: 1150 nM
SK-MEL-5 melanoma
  TGI: 1460 nM
SK-OV-3 ovarian
  TGI: 407 nM
SN12C renal
  TGI: 708 nM
SNB-19 CNS
  TGI: 748 nM
SNB-75 CNS
  TGI: 272 nM
SR leukemia
  TGI: 1200 nM
SW-620 colon
  TGI: 3490 nM
T-47D breast
  TGI: 10500 nM
TK-10 renal
  TGI: 3320 nM
U251 CNS
  TGI: 452 nM
UACC-257 melanoma
  TGI: 1090 nM
UACC-62 melanoma
  TGI: 424 nM
UO-31 renal
  TGI: 3220 nM

## Cc1cccc(NC(=O)/C=C/c2ccccc2)c1C
786-0 renal
  TGI: > 100000 nM
A498 renal
  TGI: > 100000 nM
A549 NSCLC
  TGI: > 100000 nM
ACHN renal
  TGI: > 100000 nM
BT-549 breast
  TGI: > 100000 nM
CAKI-1 renal
  TGI: > 100000 nM
CCRF-CEM leukemia
  TGI: > 100000 nM
COLO 205 colon
  TGI: > 100000 nM
DU-145 prostate
  TGI: > 100000 nM
EKVX NSCLC
  TGI: > 100000 nM
HCC-2998 colon
  TGI: > 100000 nM
HCT-116 colon
  TGI: > 100000 nM
HCT-15 colon
  TGI: > 100000 nM
HL-60(TB) leukemia
  TGI: > 100000 nM
HOP-62 NSCLC
  TGI: > 100000 nM
HS 578T breast
  TGI: > 100000 nM
HT29 colon
  TGI: > 100000 nM
K-562 leukemia
  TGI: > 100000 nM
KM12 colon
  TGI: > 100000 nM
LOX IMVI melanoma
  TGI: > 100000 nM
M14 melanoma
  TGI: > 100000 nM
MALME-3M melanoma
  TGI: > 100000 nM
MCF7 breast
  TGI: > 100000 nM
MDA-MB-231 breast
  TGI: > 100000 nM
MDA-MB-435
  TGI: > 100000 nM
MDA-N
  TGI: > 100000 nM
MOLT-4 leukemia
  TGI: > 100000 nM
NCI-H226 lung
  TGI: > 100000 nM
NCI-H23 lung
  TGI: > 100000 nM
NCI-H460 lung
  TGI: > 100000 nM
NCI-H522 lung
  TGI: > 100000 nM
OVCAR-3 ovarian
  TGI: > 100000 nM
OVCAR-4 ovarian
  TGI: > 100000 nM
OVCAR-5 ovarian
  TGI: > 100000 nM
OVCAR-8 ovarian
  TGI: > 100000 nM
PC-3 prostate
  TGI: > 100000 nM
RPMI-8226 leukemia
  TGI: > 100000 nM
SF-268 CNS
  TGI: > 100000 nM
SF-295 CNS
  TGI: > 100000 nM
SF-539 CNS
  TGI: > 100000 nM
SK-MEL-2 melanoma
  TGI: > 100000 nM
SK-MEL-28 melanoma
  TGI: > 100000 nM
SK-MEL-5 melanoma
  TGI: > 100000 nM
SK-OV-3 ovarian
  TGI: > 100000 nM
SN12C renal
  TGI: > 100000 nM
SNB-19 CNS
  TGI: > 100000 nM
SNB-75 CNS
  TGI: > 100000 nM
SR leukemia
  TGI: > 100000 nM
SW-620 colon
  TGI: > 100000 nM
T-47D breast
  TGI: > 100000 nM
TK-10 renal
  TGI: > 100000 nM
U251 CNS
  TGI: > 100000 nM
UACC-257 melanoma
  TGI: > 100000 nM
UACC-62 melanoma
  TGI: > 100000 nM
